In paper PMC7822874, “Chemoprotective antimalarials identified through quantitative high-throughput screening of Plasmodium blood and liver stage parasites” (Scientific Reports, 2021):
Read-outs that look alike come from different tables or passages of the source.

Experiments:
[1] = tested on: P. falciparum Dd2 (clone B2) asexual blood stage parasites; experiment: P. falciparum Dd2 asexual blood stage SYBR Green-I 72 h proliferation assay (qHTS); format: cell-based, Plasmodium falciparum; settings: averaged P. falciparum asexual blood stage potency, log10 of AC50 in M
[2] = tested on: P. berghei-ANKA-GFP-LucCON liver stage parasites in HepG2-A16-CD81EGFP cells; experiment: P. berghei liver stage Pb-Luc assay, Method 1 (UCSD, 1536-well); format: cell-based, Plasmodium berghei; settings: P. berghei liver stage, averaged response (percent); for Average P. berghei 1 µM response (%): the header list (r8) defines it as the 1 µM dose
HepG2-A16-CD81EGFP cells = settings: averaged response (percent)
in vitro = settings: human, hepg2-a16-cd81egfp cells, % viability
[3] = HepG2, the header list (r10) describes it as the 1 µM dose

| Compound | Pf ABS Log AC50 (M) [1] [M] | Average P. berghei 3 µM response( %) [2] [%] | Average P. berghei 1 µM response (%) [2] [%] | Average HepG2 3 µM response( %) (HepG2-A16-CD81EGFP cells; HepG2, 3 µM dose) [%] | Average HepG2 3 µM response( %) (HepG2-A16-CD81EGFP cells; [3]) [%] | viability at 3 µM (in vitro) [%] |
| --- | --- | --- | --- | --- | --- | --- |
| Cc1cc(Nc2ccc(C)c(C)c2)n2nc(C)nc2n1 [MLS000116616] | -5.712 | 39 | 76 | 90 | 91 | 90.3 |
| Cc1cc(N2CCN(C3CCCC3)CC2)n2c(nc3ccccc32)c1C#N [MLS000039270] | -6.262 | 94 | 106 | 90 | 89 | 89.8 |
| CCN(CC)CCN1C(=O)c2ccccc2NC1c1ccc(N(C)C)cc1 (centres unmarked) [MLS000554078] | -5.612 | 84 | 102 | 96 | 103 | 95.7 |
| COc1ccc(-c2c[n+](-c3ccccc3)c3n2CCS3)cc1 [MLS000587970] | -5.712 | 31 | 92 | 88 | 97 | 88.3 |
| CCN(CC)Cc1cc2[nH]c3c4ccc(Cl)cc4ncc3c2cc1OC [MLS000757007] | -6.700 | 134 | 108 | 101 | 105 | 101 |
| Cc1cc(C)c(-c2csc(NC(=O)CCCc3nc4ccccc4c(=O)[nH]3)n2)c(C)c1 [MLS001156669] | -5.900 | 12 | 72 | 103 | 99 | 103 |
| Nc1nonc1-n1nnc(C(=O)N/N=C/c2ccc(F)cc2)c1-c1ccc2c(c1)OCO2 [MLS001142639] | -6.637 | 143 | 115 | 95 | 92 | 95.3 |
| COc1ccc(NC(=O)CN(C)C(=O)c2ccc(-c3ccccc3Cl)o2)cc1 [MLS001078689] | -5.750 | 111 | 109 | 105 | 99 | 105 |
| N=c1c2c(n(Cc3ccc(F)cc3)c3c1CCC3)CCC2 [MLS000107591] | -5.862 | 16 | 68 | 78 | 100 | 77.7 |
| Cl.Oc1ccc(C2NCc3ccccc3-n3cccc32)cc1Cl (centres unmarked) [MLS000047999] | -5.962 | 90 | 101 | 94 | 100 | 94 |
| N=c1n(CCN2CCCCC2)c2ccccc2n1CC(=O)c1ccc(Cl)c(Cl)c1 [MLS001042209] | -5.750 | 89 | 92 | 87 | 89 | 87.4 |
| C=C(C)CSc1nc2sc3c(c2c(=O)n1-c1ccc(C)cc1)CCN(C)C3 [MLS001173676] | -5.800 | 59 | 87 | 87 | 97 | 86.9 |
| CC(C)N(Cc1ccccc1)C(=O)CN1C(=O)COc2ccc([S+](=O)([O-])N3CCCCCC3)cc21 [NCGC00123222] | -6.100 | 127 | 105 | 94 | 99 | 93.6 |
| O=C1C(Nc2ccccc2)=C/C(=N\S(=O)(=O)c2cccs2)c2ccccc21 [MLS000374486] | -6.462 | 34 | 65 | 86 | 101 | 86 |
| CCSc1nc2sc3c(c2c(=O)n1-c1ccccc1)CCN(C(C)C)C3 [MLS001173590] | -6.000 | 63 | 91 | 93 | 100 | 92.6 |
| COc1cc(C)cc(CN2CCC(Cc3ccccc3)CC2)c1O [MLS001178265] | -6.137 | 102 | 89 | 88 | 97 | 87.6 |
| Cc1ccc(O)c(-c2cc(C(=O)Nc3ccc([S+](=O)([O-])N4CC(C)OC(C)C4)cc3)n[nH]2)c1 (centres unmarked) [NCGC00071593] | -6.150 | 65 | 89 | 97 | 100 | 97 |
| COc1ccc(C2c3[nH]c4ccccc4c3C[C@H]3C(=O)N(C4CCN(Cc5ccccc5)CC4)CC(=O)N23)cc1OC (some centres unmarked) [MLS001215281] | -5.612 | 73 | 94 | 90 | 101 | 90.3 |
| CCOc1ccc(-n2c(SCC(=O)OC)nc3sc4c(c3c2=O)CCN(C)C4)cc1 [MLS001213437] | -5.950 | 102 | 88 | 103 | 112 | 103 |
| COc1ccc(-[n+]2c(-c3ccc(Br)cc3)cn3c2CCc2ccccc2-3)cc1.[Br-] [MLS000391920] | -5.612 | 11 | 57 | 65 | 95 | 65.4 |
| Cn1nc(C(F)(F)F)c(-c2ccc(F)cc2)c1NC(=O)Nc1ccc(F)cc1 [MLS000830769] | -5.962 | 90 | 148 | 99 | 95 | 99 |
| COc1ccc(Nc2cc(C)c3ccc(O)cc3n2)cc1 [MLS000674789] | -6.187 | 118 | 103 | 96 | 88 | 96.2 |
| O=C(Nc1ncccc1O)c1ccc(NS(=O)(=O)c2ccc3[nH]c(=O)[nH]c3c2)cc1 [MLS001138628] | -6.437 | 23 | 59 | 91 | 105 | 91 |
| Cc1cc(Nc2cccc(C(F)(F)F)c2)nc2ccc(NC(=O)c3cncc(Br)c3)cc12 [NCGC00124348] | -5.625 | 38 | 76 | 101 | 107 | – |
| O=C(O)c1ccc(-c2nc3cnccc3[nH]2)cc1 [NCGC00375713] | -5.264 | 94 | 106 | 104 | 105 | – |
| COc1ccc2[nH]c(C[C@@H]3C[C@@H](C(C)C)[C@H](CNCc4ccccc4OC)C=C3C)nc2c1 [NCGC00392082] | -5.025 | 47 | 75 | 97 | 99 | – |
| OC(CN1CCN(c2ccccn2)CC1)Cn1c2ccc(Cl)cc2c2cc(Cl)ccc21 (centres unmarked) [MLS000529159] | -5.612 | 77 | 108 | 102 | 102 | – |
| Cc1ccc(-n2c(C)cc(C(=O)OCC(=O)N(C)C3CCS(=O)(=O)C3)c2C)cc1 (centres unmarked) [MLS000098265] | -5.487 | 106 | 136 | 101 | 101 | – |
| CCN(C(=O)CSc1nc(-c2ccc(C(C)C)cc2)no1)c1ccccc1 [NCGC00127904] | -6.025 | 98 | 117 | 105 | 102 | – |
| Clc1ccc(-c2nnc(N3CCCC3)nn2)cc1 [MLS000038815] | -5.512 | 153 | 160 | 104 | 104 | – |
